Measured values taken from ChEMBL document CHEMBL1145327, “Structural insights into monoamine oxidase inhibitory potency and selectivity of 7-substituted coumarins from ligand- and target-based approaches” (J Med Chem, 2006).

How the values were obtained:
[1] = target: T1, Amine oxidase [flavin-containing] B (Rattus norvegicus, UniProt P19643); type: mitochondria, Sprague-Dawley, Mitochondria
T1 sequence (P19643 whole entry): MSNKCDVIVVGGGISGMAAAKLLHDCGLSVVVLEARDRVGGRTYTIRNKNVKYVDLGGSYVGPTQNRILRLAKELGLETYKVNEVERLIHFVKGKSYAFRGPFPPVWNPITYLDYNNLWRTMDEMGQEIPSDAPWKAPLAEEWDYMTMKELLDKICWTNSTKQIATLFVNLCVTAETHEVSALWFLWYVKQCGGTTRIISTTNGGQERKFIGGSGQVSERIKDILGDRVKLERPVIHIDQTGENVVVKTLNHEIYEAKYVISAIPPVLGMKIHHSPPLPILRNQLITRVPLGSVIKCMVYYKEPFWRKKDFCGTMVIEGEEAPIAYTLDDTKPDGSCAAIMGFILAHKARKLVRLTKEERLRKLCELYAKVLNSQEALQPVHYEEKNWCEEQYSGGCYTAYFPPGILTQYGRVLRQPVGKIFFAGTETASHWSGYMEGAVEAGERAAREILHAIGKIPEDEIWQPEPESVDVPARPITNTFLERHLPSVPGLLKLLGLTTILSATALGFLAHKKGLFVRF
Description: Inhibition of Sprague-Dawley rat brain mitochondria MAOB by continuous spectrophotometric assay

[2] = target: T2, Amine oxidase [flavin-containing] A (Rattus norvegicus, UniProt P21396); type: mitochondria, Sprague-Dawley, Mitochondria
T2 sequence (P21396 whole entry): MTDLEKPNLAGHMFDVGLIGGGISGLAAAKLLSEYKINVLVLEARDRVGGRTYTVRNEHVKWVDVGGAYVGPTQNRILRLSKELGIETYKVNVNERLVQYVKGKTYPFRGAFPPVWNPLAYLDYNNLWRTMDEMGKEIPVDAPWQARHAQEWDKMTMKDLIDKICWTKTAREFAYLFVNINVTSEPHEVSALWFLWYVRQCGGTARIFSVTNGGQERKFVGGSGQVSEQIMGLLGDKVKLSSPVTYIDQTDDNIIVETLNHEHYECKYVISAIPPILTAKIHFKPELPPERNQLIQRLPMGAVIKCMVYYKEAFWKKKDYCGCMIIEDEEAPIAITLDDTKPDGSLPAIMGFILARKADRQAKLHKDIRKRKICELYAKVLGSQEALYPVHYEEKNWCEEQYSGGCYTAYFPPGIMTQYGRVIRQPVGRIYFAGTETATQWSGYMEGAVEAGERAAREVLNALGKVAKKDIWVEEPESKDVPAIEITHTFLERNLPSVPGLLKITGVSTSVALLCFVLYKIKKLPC
Description: Inhibition of Sprague-Dawley rat brain mitochondria MAOA by continuous spectrophotometric assay

IC50 [1] [nM] | IC50 [2] [nM] | SMILES
3240 |  | Cc1c(C)c2ccc(Oc3ccccc3)cc2oc1=O
2750 | 18600 | Cc1c(C)c2ccc(S(=O)(=O)Cc3ccccc3)cc2oc1=O
39.8 | 10000 | Cc1c(C)c2ccc(SCc3ccccc3)cc2oc1=O
871 | 2820 | Cc1c(C)c2ccc(OCS(=O)(=O)c3ccccc3)cc2oc1=O
457 | 7080 | Cc1c(C)c2ccc(CCc3ccccc3)cc2oc1=O

Continued, molecule first:

SMILES | IC50 [1] [nM] | IC50 [2] [nM]
Cc1cc2ccc(OCc3ccccc3)cc2oc1=O | 6.61 | 5500
Cc1c(C)c2ccc(OC[C@@H](O)c3ccccc3)cc2oc1=O | 28.2 | 10000
Cc1c(C)c2ccc(OCCOc3ccccc3)cc2oc1=O | 26.9 | 10200
O=C(OCc1ccc2ccc(=O)oc2c1)c1ccccc1 | 2400 | 9550
Cc1ccc(S(=O)(=O)N(C)c2ccc3c(C)c(C)c(=O)oc3c2)cc1 |  | 4570
Cc1cc2ccc(OCc3cccc(Cl)c3)cc2oc1=O | 5.13 | 12600
Cc1c(C)c2ccc(OC/C=C/c3ccccc3)cc2oc1=O | 112 | 
Cc1c(C)c2ccc(OC[C@H](O)c3ccccc3)cc2oc1=O | 302 | 3240
Cc1c(C)c2ccc(OCC(O)c3ccccc3)cc2oc1=O (racemic) | 70.8 | 10000
